Test [1] concerns CASK^floxed; Calb2-cre mice. Description: Cerebellar atrophy/degeneration after CASK deletion in cerebellum, images of cerebellum with SkQ1 treatment. The test is classed as in vivo. The source says: (§1) FIG. 5A-5B.-Blocking mitochondrial ROS protects cerebellum from degenerating in absence of CASK. […] Cerebellum undergoes atrophy after P30. […] (FIG. 5B) Cerebellum undergoes atrophy in CASK^floxed; Calb2-cre mice leading to locomotor incoordination. The data represents latency time to fall in an accelerating rotarod experiment on P70. CASK^floxed. […] Data represents mean and SEM from n=3. * indicates p≤ 0.05.
With no evidence for a defect in neuronal development and biochemical evidence for mitochondrial ROS mediated neuronal death, Applicant next decided to determine if CASK loss results in the degeneration of formed neurons. In the human brain without CASK, Applicant observed astrogliosis as well as microgliosis, both hallmarks of neuronal damage and neuronal loss (Patel, Hegert et al., 2022). In the setting of a human brain without CASK, the presumptive neuronal loss occurs during the early development of the cerebellum, making it hard to further interpret the results. […]

The subject of test [2] is CASK^floxed; Calb2-cre mice. Description: Accelerating rotarod experiment (locomotor coordination/balance). The note with it: P70, n=3, p≤0.05, untreated mice cannot balance on rotarod, FIG. 5B. Type of test: in vivo.
Source text: as §1

The structures appear in SMILES notation. “Also recorded” adds a separate entry of the source.

As for `CC1=C(C)C(=O)C(CCCCCCCCCC[P+](c2ccccc2)(c2ccccc2)c2ccccc2)=CC1=O` [SkQ1, 10-(6′-Plastoquinonyl)decyltriphenylphosphonium], the “cerebellar atrophy (images of cerebellum)” value in test [1] (CASK^floxed, untreated cerebellum atrophies after P30 (P30 vs P100 images), FIG. 5A right panel SkQ1-treated) is listed as “rescue of cerebellar atrophy”. Further, the “cerebellar degeneration / neurodegeneration caused by CASK deletion” value in test [1] (CASKfloxed, summary statement on FIG. 5A-5B) is recorded as “can halt CASK-linked cerebellar degeneration; also recorded: effectively inhibits neurodegeneration resulting from CASK-loss”. The “latency time to fall in accelerating rotarod experiment (balance)” value in test [2] is on record as “balance is completely rescued”.
